Laboratory results as given in PubChem BioAssay (NCI).
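Five concentrations, 48 hours, 96-well plates. Here, GI50 denotes the concentration required for 50% inhibition of growth. TGI is the concentration that stops growth completely.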

Columns and labels:
Test in all cases: DTP human tumour cell line panel, 48 h
[1] = system: MDA-MB-231 breast
[2] = system: HS 578T breast
[3] = system: MDA-MB-435
[4] = system: BT-549 breast
[5] = system: T-47D breast

| SMILES | TGI [1] | TGI [2] | TGI [3] | TGI [4] | TGI [5] | GI50 [1] | GI50 [2] | GI50 [3] | GI50 [4] | GI50 [5] |
| --- | --- | --- | --- | --- | --- | --- | --- | --- | --- | --- |
| CCOC(=O)c1cc2cc([N+](=O)[O-])ccc2oc1=O | > 100 µM | > 100 µM | > 100 µM | > 100 µM | > 100 µM |  |  |  |  |  |
| CN(C)c1ccc(/C=N/Nc2ccc(-c3nc4ccccc4[nH]3)cc2)cc1 | 42.1 µM | 23.6 µM | > 50 µM | 35.5 µM | 40.9 µM | 13.4 µM | 5.61 µM | 8.25 µM | 12.4 µM | 8.95 µM |
| N#CC(C#N)=C/C=C/c1cccc([N+](=O)[O-])c1 | 16 µM | 2.75 µM | 2.53 µM |  | 6.81 µM | 1.74 µM | 0.325 µM | 0.426 µM |  | 1.4 µM |
| COc1ccccc1OCC(O)CO (stereo unspecified) | > 100 µM | > 100 µM | > 100 µM | > 100 µM | > 100 µM | > 100 µM | > 100 µM | > 100 µM | > 100 µM | > 100 µM |
| CC(=O)OCC1OC(O[C@@H]2C[C@H]3C(C)(C)[C@H](OC(C)=O)CC[C@]3(C)[C@H]3CC[C@@H]4[C@]5(CC[C@@]4(C)[C@@]32C)O[C@@H]([C@H](O)C(C)(C)O)C[C@@H]5C)C(O)C(O)C1O (stereo partly specified) | 22.3 µM | 25.4 µM | 22.4 µM | 24.5 µM | 18.4 µM | 10.2 µM | 9.3 µM | 8.36 µM | 12.1 µM | 5.63 µM |
| NC(=NC1C2CC3CC(C2)CC1C3)Nc1ccc(I)cc1 (stereo unspecified) | 11 µM | 25.2 µM | 13.6 µM | 12.8 µM |  | 3.31 µM | 4.65 µM | 3.8 µM | 3.33 µM |  |
| C=C(C)[C@@H]1CC[C@]2(C#N)CC[C@]3(C)[C@H](CC[C@@H]4[C@@]5(C)CCCNC(C)(C)[C@@H]5CC[C@]43C)[C@@H]12 | 3.38 µM | 4.85 µM | 3.78 µM | 3.42 µM | 4.05 µM | 1.84 µM | 2.01 µM | 1.92 µM | 1.75 µM | 1.76 µM |
| COc1cc(SC)ccc1C(=O)N1CCCC(C)C1 (stereo unspecified) | > 100 µM | > 100 µM | > 100 µM | > 100 µM | > 100 µM | > 100 µM | > 100 µM | > 100 µM | > 100 µM | > 100 µM |
| C=C1C(=O)O[C@H]2[C@H](OC(C)=O)[C@@H](C)CCC/C(C)=C/CC[C@]3(CO3)[C@H](O)C[C@@H]12 | 17.2 µM | 35.3 µM | 7.99 µM | 15.4 µM | 9.88 µM | 5.25 µM | 14.4 µM | 3.01 µM | 3.77 µM | 2.8 µM |
| Cc1cc(I)cc(CN(C)CCCCN2CCCC2)c1O | 51.1 µM | 32.8 µM | 27.9 µM | 33.5 µM | 40.4 µM | 18.8 µM | 11.5 µM | 11.1 µM | 13.6 µM | 15.7 µM |
| C[C@@H]1CC[C@H]2C(CN3CCN(CC4=C(C(F)(F)F)O[C@@H]5O[C@@]6(C)CC[C@H]7[C@H](C)CC[C@@H]4[C@@]57OO6)CC3)=C(C(F)(F)F)O[C@@H]3O[C@@]4(C)CC[C@@H]1[C@]32OO4 | > 27.7 µM | > 47.3 µM | > 100 µM | > 100 µM | > 100 µM | 7.85 µM | 1.75 µM | 1.09 µM | 2.53 µM | 0.458 µM |
| O=c1c2c(=NCCCN3CCCC3)cc3c(=O)n(CCCN4CCCC4)c(=O)c4c(NCCCN5CCCC5)cc(c(O)n1CCCN1CCCC1)c2c4-3 | 20.7 µM | 9.63 µM | 11.3 µM | 36.1 µM | 18.1 µM | 4.89 µM | 2.67 µM | 3.04 µM | 14.1 µM | 2.89 µM |
| COCCn1cc(-c2csc(-c3c[nH]c4ccc(F)cc34)n2)c2cccnc21 | > 100 µM | > 100 µM | 14.3 µM | > 100 µM |  | 2.59 µM | 8.82 µM | 0.89 µM | 4.26 µM |  |
| C/C(=N\n1c(N)c(C#N)c(-c2ccc(Cl)cc2)c(C#N)c1=O)c1cccnc1 | > 100 µM | > 100 µM | > 100 µM |  | > 100 µM | > 100 µM | > 100 µM | > 100 µM |  | > 100 µM |
| NC(=O)c1ccc(NC(=O)c2oc3ccccc3c2-c2cnn(-c3ccccc3)c2)cc1 | > 100 µM | > 100 µM | > 100 µM | > 100 µM |  | 4.65 µM | 4.56 µM | > 100 µM | 3.51 µM |  |
| Fc1cc(Nc2ccc3c(OCCCN4CCOCC4)cccc3n2)ccc1Cl |  | 6 µM | 4.83 µM | 18.7 µM | 7.16 µM |  | 2.19 µM | 2.05 µM | 5.16 µM | 2.27 µM |
| NC(=O)c1ccc(-c2c3ccccc3cc3c2ccc2ccccc23)cc1 | 23.8 µM | 7.08 µM | 3.51 µM |  | > 100 µM | 3.91 µM | 2 µM | 0.382 µM |  | 3.19 µM |
